Results published in patent publication US20160031958A1, “METHODS AND COMPOSITIONS USEFUL IN MANIPULATING THE STABILITY OF RE1 SILENCING TRANSCRIPTION FACTOR” (OREGON HEALTH & SCIENCE UNIVERSITY, priority 2014, published 2016).
Where a SMILES comes first, the peptide text is derived from it. The star is where a group is joined. Cbz = O=C(OCc1ccccc1)*

What was measured:
MEK [1] = assay: Native gel / in-gel GFP fluorescence of REST (810-910)-GFP reporter peptide phosphorylation in HEK293T cells; assay type: cell-based, Human
Procedure: To interrogate this serine residue, HEK293T cells were transfected with the REST (810-910)-GFP peptide with alanine mutations at S856, S861, and/or S864 as indicated. (S856/864A is S856A/S864A with S861 unmutated; S856/861A is S856A/S861A with S864 unmutated; S861/864A is S861A/S864A with S856 unmutated). […]
Gels were treated the same as in FIG. 5C.
To monitor phosphorylation status of specific REST sites under different circumstances, a cDNA reporter construct that expresses a peptide encoding amino acids 810-to-910 of REST (FIG. 3A) was constructed. Mutant REST (810-910) cDNAs encoding alanine mutations at S861, S864 and at an adjacent site, S856 were also constructed. S856 was minimally phosphorylated in the mass spectrometric analysis described above. […] The constructs also comprise regions that encode N-terminal FLAG and C-terminal eGFP tags (FIG. 3A). These constructs were transfected into HEK cells and expressed. Extracts from the cells were resolved on native gels 24 hours after transfection. The expressed peptides were detected by in-gel GFP fluorescence.
The phosphorylation state of the expressed REST peptides can be visualized by differential migration in native gels due to charge differences. The unmutated S861/S864 REST 810-910 peptide (FIG. 3B, lane 1) migrated predominantly as two distinct bands that were not present upon treatment with lambda phosphatase (FIG. 3B, lane 7). […] The identification of the doubly phosphorylated species was based upon the mobility of an unmutated peptide containing unmutated S861/864 (FIG. 3B, lane 2, S856A), which was not present in samples expressing peptides containing S861A or S864A single mutations (lanes 3 and 4, respectively).
Detection of in gel fluorescence on native 10.5%-14% acrylamide gels (Bio-Rad Cat #345-9949) was performed using the Typhoon imaging system by GE Healthcare Life Science.

endogenous REST protein [2] = assay: Western blot of endogenous REST protein after transfection of CTDSP1 cDNA into HEK293T cells; assay type: cell-based, Human; conditions: HEK293T cells transfected with CTDSP1 cDNA
Procedure: FIG. 6D is an image of a Western blot analysis showing stabilized endogenous REST protein after transfection of CTDSP1 cDNA into HEK293T cells. α-tubulin is the loading control.
Using a REST phospho-specific polyclonal antibody, it was shown that exogenously expressed FLAG-CTDSP1 dephosphorylated these sites in full-length REST (FIG. 6B). Dephosphorylation by CTDSP1 was also observed in the REST reporter peptides as detected by in-gel fluorescence (FIG. 6C).
(§1) Whole cell lysates were prepared and immunoprecipitated following the procedures in Ballas N et al, 2001 supra and Nesti E et al, Mol Biol Cell 15, 4073-4088 (2004); incorporated by reference herein. Western blots were performed by standard procedures using antibodies described below and analyzed using anti IgG conjugated to infrared dyes (ThermoFisher) on an Odyssey® infrared fluorescence imager (LiCor). For detecting phosphorylated REST at S861/S864, cell extracts were prepared lacking phosphatase inhibitors. For phosphatase treatment, 75 μg of total protein was treated with 600 U lambda phosphatase (New England Biolabs) or with buffer alone at 30° C. for 1 h, according to the manufacturer's protocol. […] Infrared fluorescence was detected on the Odyssey® imager (LiCor) in the 700 nm channel. […]

endogenous REST protein [3] = assay: Western blot of endogenous REST protein levels in transfected E12.5 neurospheres; assay type: cell-based; conditions: E12.5 mouse cortical neurospheres after transfection; MG132 4 h; compared to control peptides
Procedure: FIG. 7B is an image of a Western blot showing endogenous REST protein levels in E12.5 neurospheres after transfection. Lane 1, empty vector; lane 2, control (595-694) peptide; lane 3, REST(810-910) S861/864A peptide; lane 4, REST(810-910) WT peptide; lane 5, empty vector with MG132 treated for 4 h. The blot was probed with anti-mouse-REST antibody and anti-tubulin (loading control) antibodies.
There is a significant difference between REST (810-910) compared to control (595-694) peptide (n=5, p=0.0021) and REST(810-910) compared to S861/864A REST(810-910) (n=5, p=0.046). The difference between MG132 and REST(810-910) is not significant (n=5, p=0.7996, Sidak's multiple comparison test, error bars represent 95% confidence interval).
The Examples above used the REST (810-910) reporter as a surrogate substrate for signaling molecules that target S861/S864 on full-length REST. […]
(§2) Whole cell lysates were prepared and immunoprecipitated following the procedures in Ballas N et al, 2001 supra and Nesti E et al, Mol Biol Cell 15, 4073-4088 (2004); incorporated by reference herein. Western blots were performed by standard procedures using antibodies described below and analyzed using anti IgG conjugated to infrared dyes (ThermoFisher) on an Odyssey® infrared fluorescence imager (LiCor). […] Infrared fluorescence was detected on the Odyssey® imager (LiCor) in the 700 nm channel. […]

Pin1 [4] = target: T1, Pin1 (Homo sapiens, UniProt Q13526); assay: Co-immunoprecipitation of GST-βTrCP with FLAG-REST in HEK293T cells after Pin1 inhibition; assay type: cell-based; conditions: FLAG-REST and GST-βTrCP 48 h, PiB 7.5 h and MG132 4 h
T1 construct: endogenous in cells; host or cells: HEK293T
Procedure: HEK293T cells were transfected with FLAG-REST (unmutated or S861A/S864A) and GST-βTrCP for 48 h prior to treatment with PiB for 7.5 h and MG132 for 4 h, and then immunoprecipitated. Western blots were probed with anti-FLAG or anti-GST.
(§3) HEK293T cells were transfected using Lipofectamine 2000 (Life Technologies) following the manufacturer's instructions. PC12 tet, PC12 tet-on FLAG-REST, and HEK293T cell lines were maintained as described in Ballas N et al 2001 supra. Neurospheres were isolated from E12.5 mouse cortices and cultured as described in Reynolds B A and Weiss S, Science 255, 1707-1710 (1992); incorporated by reference herein in neurobasal media supplemented with 2 mM L-glutamine, 100 U/mL penicillin, […] streptomycin, B27 supplement, 20 ng/mL EGF, and 10 ng/mL FGF-2, all from Life Technologies. Neurospheres were passaged every 3-4 days using Accutase® (Sigma). […]
as §2

Pin1 [5] = target: T2, Pin1 (Rattus norvegicus, UniProt A0ABK0LFD7); assay: Western blot of FLAG-REST protein levels in PC12 tet-on FLAG-REST cells treated with Pin1 inhibitor; assay type: cell-based; conditions: PC12 tet-on FLAG-REST cells induced 24 h with doxycycline, PiB or vehicle for 7.5 h
T2 construct: endogenous in cells; host or cells: PC12 tet-on FLAG-REST cells
Procedure: PC12 tet-on FLAG-REST cells were induced 24 h with doxycycline, treated with PiB or vehicle for 7.5 h, and then extracted for analysis. Blots were probed with anti-FLAG (REST) and α-tubulin (loading control).
as §3, §2

MEK [6] = assay: Western blot of FLAG-REST protein levels in transfected HEK cells after MEK/ERK inhibitor; assay type: cell-based, Human; conditions: HEK cells transfected with FLAG-REST cDNA, PD184352 or vehicle for 30 min
Procedure: To provide further support for this, unmutated REST (810-910) reporter cDNA was transfected into HEK cells and the peptide expressed in the presence and absence of the MEK/ERK inhibitor PD184352. Treatment with PD184352 caused a modest loss from the band at the position representing unmutated S861/S864 peptide and a reciprocal modest increase in the species representing unphosphorylated peptide (FIG. 5C). […] Accordingly, HEK cells transfected with FLAG-REST cDNA were treated with PD184352 for 30 min and the extracts were analyzed by Western blot.
as §1

T1 sequence (Q13526 whole entry): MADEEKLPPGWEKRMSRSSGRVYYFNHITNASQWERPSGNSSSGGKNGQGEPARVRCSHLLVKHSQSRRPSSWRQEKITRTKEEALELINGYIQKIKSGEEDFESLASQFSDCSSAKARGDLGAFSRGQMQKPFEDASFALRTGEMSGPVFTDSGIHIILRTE
T2 sequence (A0ABK0LFD7 1-162): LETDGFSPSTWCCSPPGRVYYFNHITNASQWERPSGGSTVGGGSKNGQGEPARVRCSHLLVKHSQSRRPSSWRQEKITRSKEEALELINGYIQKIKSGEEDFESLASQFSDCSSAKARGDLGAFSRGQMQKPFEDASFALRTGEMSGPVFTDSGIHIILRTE

EGF: recombinant EGF, upstream activator of ERK
Phosphorylation of S864 in REST (810-910)-GFP peptide (mobility shift) (MEK [1]; HEK293T, recombinant EGF or vehicle 10 min): induces phosphorylation of S864

CC(C)C[C@@H](C=O)NC(=O)[C@H](CC(C)C)NC(=O)[C@H](CC(C)C)NC(=O)OCc1ccccc1 [MG132] (Cbz-Leu-Leu-Leu-aldehyde)
REST stabilization by CTDSP1, further effect of MG132 (endogenous REST protein [2]): not increased further
Endogenous full-length REST protein levels (endogenous REST protein [3]): did not stabilize the Rest protein further

CCOC(=O)CN1C(=O)c2ccc3c4c(ccc(c24)C1=O)C(=O)N(CC(=O)OCC)C3=O [PiB]
βTrCP binding to REST (co-immunoprecipitation) (Pin1 [4]): diminished βTrCP binding to REST
REST protein levels (anti-FLAG Western blot) (Pin1 [5]): higher REST protein levels

O=C(NOCC1CC1)c1ccc(F)c(F)c1Nc1ccc(I)cc1Cl [PD184352]
EGF-induced phosphorylation of S864 in REST (810-910)-GFP peptide (MEK [1]; HEK293T, PD184352 for 20 min, then recombinant EGF 10 min): inhibited
Bands of doubly phosphorylated and non-phosphorylated REST (810-910) peptide (MEK [1]; REST (810-910) and GFP cDNA co-transfected into HEK cells, presence and absence of PD184352 (FIG. 10)): loss of band representing the doubly phosphorylated peptide
S861/S864 phosphorylation in WT REST peptide (MEK [1]; transfected HEK293T cells, 10 mM PD184352 for 4 hours): partial loss of S861/S864 phosphorylation
FLAG-REST protein levels (Western blot) (MEK [6]): increased FLAG-REST protein levels
